This passage reports IC50 results from patent US10710996B2, “Pyrido-azaheterecydic compound and preparation method and use thereof” (SHANGHAI INSTITUTE OF MATERIA MEDICA, CHINESE ACADEMY OF …, priority 2015, dated 2020).

pIC50: −log10 of the molar value.

The term pIC50 denotes the IC50 on a negative log10 scale, so that one unit is a factor of ten. Higher therefore signals a low IC50.

For the first assay, the target named is T1, c-Met kinase (Homo sapiens, UniProt P08581).
T1 construct: c-Met kinase domain recombinant protein diluted with 49 μL of the reaction buffer was added
T1 sequence (P08581 1078-1345 limits assumed): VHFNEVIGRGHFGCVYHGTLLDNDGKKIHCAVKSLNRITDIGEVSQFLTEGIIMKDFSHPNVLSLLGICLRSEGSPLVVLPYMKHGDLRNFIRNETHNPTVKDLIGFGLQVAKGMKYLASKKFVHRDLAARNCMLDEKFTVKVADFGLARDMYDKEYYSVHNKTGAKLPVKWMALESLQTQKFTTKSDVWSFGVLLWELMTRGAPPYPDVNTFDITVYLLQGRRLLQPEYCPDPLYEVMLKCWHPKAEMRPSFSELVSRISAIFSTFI
The assay can be described thus: Inhibitory effect on c-Met kinase activity at molecular level (ELISA).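 Note: recombinant c-Met kinase domain with 5 µM ATP, 1 h at 37 °C, substrate phosphorylation detected by anti-phosphotyrosine PY99 ELISA at 490 nm versus DMSO negative control, ATP-free wells as blank.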 Type of assay: biochemical.
Settings: not given
(In general: ELISA stands for enzyme-linked immunosorbent assay.)
In turn, `Nc1ccc(Oc2ccnc3c(Br)c(OCCN4CCOCC4)ncc23)c(F)c1` [Compound 4S, 4-((8-bromo-7-(2-morpholinoethoxy)-1,6-naphthyridin-4-yl)oxy)-3-fluoroaniline] showed a pIC50 of 5.00 to 6.00. In turn, `Nc1ccc(Oc2ccnc3cc(OCCN4CCOCC4)ncc23)c(F)c1` [Compound 5S] gave a negative-log IC50 (pIC50) of 6.00 to 7.00. `O=C(Nc1ccc(F)cc1)C1(C(=O)Nc2ccc(Oc3ccnc4c(Br)c(OCCN5CCOCC5)ncc34)c(F)c2)CC1` [Compound 6S, N-(4-((8-bromo-7-(2-morpholinoethoxy)-1,6-naphthyridin-4-yl)oxy)-3-fluorophenyl)-N-(4-fluorophenyl) cyclopropyl-1,1-dicarboxamide] showed a negative logarithm of the IC50 (pIC50) of 7.00 to 8.00. In the case of `CN1CCN(CCOc2ncc3c(Oc4ccc(NC(=O)C5(C(=O)Nc6ccc(F)cc6)CC5)cc4F)ccnc3c2Br)CC1` [Compound 10S, N-(4-((8-bromo-7-(2-(4-methylpiperazin-1-yl)ethoxy)-1,6-naphthyridin-4-yl)oxy)-3-fluorophenyl)-N-(4-fluorophenyl) cyclopropyl-1,1-dicarboxamide], the pIC50 is 7.00 to 8.00. Same read-out and setting: the same measure for `CN(C(=O)C1(C(=O)Nc2ccc(Oc3ccnc4cc(OCCN5CCOCC5)ncc34)c(F)c2)CC1)c1ccc(F)cc1` [Compound 14S, N-(3-fluoro-4-((7-(2-morpholinoethoxy)-1,6-naphthyridin-4-yl)oxy)phenyl)-N-(4-fluorophenyl)-N-methylcyclopropyl-1,1-dicarboxamide]: 6.00 to 7.00; for `O=C(Nc1ccc(F)cc1)c1cccn(-c2ccc(Oc3ccnc4cc(OCCN5CCOCC5)ncc34)c(F)c2)c1=O` [Compound 16S, 1-(3-fluoro-4-((7-(2-morpholinoethoxy)-1,6-naphthyridin-4-yl)oxy)phenyl)-N-(4-fluorophenyl)-2-oxo-1,2-dihydropyridine-3-carboxamide]: 7.00 to 8.00; for `COC(=O)c1cccn(-c2ccc(Oc3ccnc4cc(OCCN5CCOCC5)ncc34)c(F)c2)c1=O` [Compound 17S, methyl 1-(3-fluoro-4-((7-(2-morpholinoethoxy)-1,6-naphthyridin-4-yl)oxy)phenyl)-2-oxo-1,2-dihydropyridine-3-carboxylate]: 8.00 to 9.00.

`O=C(Cc1ccccc1)Nc1ccc(Oc2ccnc3c(Br)c(OCCN4CCOCC4)ncc23)c(F)c1` [Compound 18S, N-(4-((8-bromo-7-(2-morpholinoethoxy)-1,6-naphthyridin-4-yl)oxy)-3-fluorophenyl)-2-phenylacetamide] had a negative logarithm of the IC50 (pIC50) of 6.00 to 7.00. Molecule `O=C(Nc1ccc(Oc2ccnc3c(Br)c(OCCN4CCOCC4)ncc23)c(F)c1)c1c[nH]cc(-c2ccccc2)c1=O` [Compound 19S, N-(4-((8-bromo-7-(2-morpholinoethoxy)-1,6-naphthyridin-4-yl)oxy)-3-fluorophenyl)-4-oxo-5-phenyl-1,4-dihydropyridine-3-carboxamide] showed a pIC50 of 7.00 to 8.00.

Molecule `O=C(Nc1ccc(Oc2ccnc3c(Br)c(OCCN4CCOCC4)ncc23)c(F)c1)c1c[nH]cc(-c2ccc(F)cc2)c1=O` [Compound 21S, N-(4-((8-bromo-7-(2-morpholinoethoxy)-1,6-naphthyridin-4-yl)oxy)-3-fluorophenyl)-5-(4-fluorophenyl)-4-oxo-1,4-dihydropyridine-3-carboxamide] had a pIC50 of 7.00 to 8.00. The molecule `O=C(Nc1ccc(F)cc1)C1(C(=O)Nc2ccc(Oc3ccnc4cc(N5CCOCC5)ncc34)c(F)c2)CC1` [Compound 27S, N-(3-fluoro-4-((7-morpholino-1,6-naphthyridin-4-yl)oxy)phenyl)-N-(4-fluorophenyl)cyclopropyl-1,1-dicarboxamide] showed a negative logarithm of the IC50 (pIC50) of 7.00 to 8.00. As to `O=C(Nc1ccc(F)cc1)C1(C(=O)Nc2ccc(Oc3ccnc4cc(N5CCC(N6CCOCC6)CC5)ncc34)c(F)c2)CC1` [Compound 28S, N-(3-fluoro-4-((7-(4-morpholinopiperidin-1-yl)--naphthyridin-4-yl)oxy)phenyl)-N-(4-fluorophenyl)cyclopropyl-1,1-dicarboxamide], the negative logarithm of the IC50 (pIC50) was 7.00 to 8.00. Regarding `C[C@H]1COCCN1CCOc1cc2nccc(Oc3ccc(NC(=O)C4(C(=O)Nc5ccc(F)cc5)CC4)cc3F)c2cn1` [Compound 29S, (S)-N-(3-fluoro-4-((7-(2-(3-methylmorpholino)ethoxy)-naphthyridin-4-yl)oxy)phenyl)-N-(4-fluorophenyl) cyclopropyl-1,1-dicarboxamide], the pIC50 was 7.00 to 8.00. Same read-out and setting: the same measure for `C[C@@H]1COCCN1CCOc1cc2nccc(Oc3ccc(NC(=O)C4(C(=O)Nc5ccc(F)cc5)CC4)cc3F)c2cn1` [Compound 30S, (R)-N-(3-fluoro-4-((7-(2-(3-methylmorpholino)ethoxy)-naphthyridin-4-yl)oxy)phenyl)-N-(4-fluorophenyl) cyclopropyl-1,1-dicarboxamide]: 7.00 to 8.00. For `O=C(Nc1ccc(F)cc1)C1(C(=O)Nc2ccc(Oc3ccnc4cc(OCCn5ccnc5)ncc34)c(F)c2)CC1` [Compound 31S, N-(4-((7-(2-(1H-imidazol-1-yl)ethoxy)-naphthyridin-4-yl)oxy)-3-fluorophenyl)-N-(4-fluorophenyl)cyclopropyl-1,1-dicarboxamide], the pIC50 is 7.00 to 8.00. On to `O=C(Nc1ccc(F)cc1)C1(C(=O)Nc2ccc(Oc3ccnc4cc(N5CCN(Cc6ccccc6)CC5)ncc34)c(F)c2)CC1` [Compound 32S, N-(4-((7-(4-benzylpiperazin-1-yl)-naphthyridin-4-yl)oxy)-3-fluorophenyl)-N-(4-fluorophenyl)cyclopropyl-1,1-dicarboxamide], for which the negative-log IC50 (pIC50) is 7.00 to 8.00. As to `O=C(Nc1ccc(F)cc1)C1(C(=O)Nc2ccc(Oc3ccnc4[nH]c(=O)cnc34)c(F)c2)CC1` [Compound 33S, N-(3-fluoro-4-((3-oxo-3,4-dihydropyrido [2,3-b]pyrazin-8-yl)oxy)phenyl)-N-(4-fluorophenyl)cyclopropyl-1,1-dicarboxamide], the pIC50 was 6.00 to 7.00. Still for that read-out and setting: the same measure for `O=C(Nc1ccc(F)cc1)C1(C(=O)Nc2ccc(Oc3ccnc4ncc(=O)[nH]c34)c(F)c2)CC1` [Compound 34S, N-(3-fluoro-4-((2-oxo-1,2-dihydropyrido [2,3-b]pyrazin-8-yl)oxy)phenyl)-N-(4-fluorophenyl)cyclopropyl-1,1-dicarboxamide]: 6.00 to 7.00; for `CCN1CCC(Nc2cc3nccc(Oc4ccc(NC(=O)c5ccnn(-c6ccc(F)cc6)c5=O)cc4F)c3cn2)C(F)C1` (stereo not drawn) [Compound 35S, N-(4-((7-((1-ethyl-3-fluoropiperidin-4-yl)amino)-1,6-naphthyridin-4-yl)oxy)-3-fluorophenyl)-2-(4-fluorophenyl)-3-oxo-2,3-dihydropyridazine-4-carboxamide]: 7.00 to 8.00; for `O=C(COc1cc2nccc(Oc3ccc(NC(=O)C4(C(=O)Nc5ccc(F)cc5)CC4)cc3F)c2cn1)N1CCOCC1` [Compound 36S, N-(3-fluoro-4-((7-(2-morpholino-2-acetoxy)-1,6-naphthyridin-4-yl)oxy)phenyl)-N-(4-fluorophenyl)cyclopropyl-1,1-dicarboxamide]: 7.00 to 8.00.

Consider `O=C(Nc1ccc(F)cc1)C1(C(=O)Nc2ccc(Oc3ccnc4cc(-c5ccc([N+](=O)[O-])cc5)ncc34)c(F)c2)CC1` [Compound 48S, N-(3-fluoro-4-((7-(4-nitrophenyl)-1,6-naphthyridin-4-yl)oxy)phenyl)-N-(4-fluorophenyl)cyclopropyl-1,1-dicarboxamide], for which the pIC50 was 7.00 to 8.00.

The molecule `O=C(Nc1ccc(F)cc1)C1(C(=O)Nc2ccc(Oc3ccnc4cc(-c5ccc(N6CCOCC6)cc5)ncc34)c(F)c2)CC1` [Compound 50S, N-(3-fluoro-4-((7-(4-morpholinophenyl)-1,6-naphthyridin-4-yl)oxy)phenyl)-N-(4-fluorophenyl)cyclopropyl-1,1-dicarboxamide] had a pIC50 of 7.00 to 8.00.

`O=C(Nc1ccc(F)cc1)C1(C(=O)Nc2ccc(Oc3ccnc4cc(-c5cnoc5)ncc34)c(F)c2)CC1` [Compound 51S] gave a negative-log IC50 (pIC50) of 8.00 to 9.00. In the case of `O=C(Nc1ccc(F)cc1)C1(C(=O)Nc2ccc(Oc3ccnc4cc(-c5ccsn5)ncc34)c(F)c2)CC1` [Compound 52S], the pIC50 was 6.00 to 7.00. Regarding `Cn1cc(-c2cc3nccc(Oc4ccc(NC(=O)c5cccn(-c6ccc(F)cc6)c5=O)cc4F)c3cn2)cn1` [Compound 53S, N-(3-fluoro-4-((7-(1-methyl-1H-pyrazol-4-yl)-1,6-naphthyridin-4-yl)oxy)phenyl)-1-(4-fluorophenyl)-2-oxo-1,2-dihydropyridine-3-carboxamide], the pIC50 is 7.00 to 8.00.

`O=C(Nc1ccc(F)cc1)C1(C(=O)Nc2ccc(Oc3ccnc4nc(OCCCN5CCOCC5)cnc34)c(F)c2)CC1` [Compound 61S, N-(3-fluoro-4-((3-(3-morpholinopropoxy)pyrido[2,3-b]pyrazin-8-yl)oxy)phenyl)-N-(4-fluorophenyl)cyclopropyl-1,1-dicarboxamide] showed a pIC50 of 7.00 to 8.00.

The test system of a further assay is EBC-1 cells. In words: Inhibition of c-Met-mediated EBC-1 cell proliferation (SRB staining). The format is cell-based. The settings on record: Homo sapiens, 72 hours treatment. As to the method:
The inhibitory effect of the compounds on the growth of non-small cell cancer EBC-1 cell (a cell line in which Met is continually activated due to the amplification of MET gene, and is a Met-dependent tumor cell line) was measured by sulforhodamine B (SRB) staining assay. A certain amount of EBC-1 cells in their logarithmic growth phase were seeded in 96-well plates at 90 μL per well and cultured overnight, then 10 μL of different concentrations of compounds or solvent control were added thereto, three wells for each concentration. After treated by the compound for 72 hours, the adherent cells were removed of culture medium and fixed with 10% (w/v) trichloroacetic acid (100 μL/well) at 4° C. for 1 hr followed by rinsing with distilled water five times. After drying at room temperature, 100 μL of SRB solution (dissolved in 1% glacial acetic acid at 4 mg/mL) was added to each well to incubate and stain the cells for 15 min at room temperature, then unbound SRB was washed off with 1% glacial acetic acid for five times. After drying at room temperature, 100 μL of 10 mM Tris solution was added to each well. The optical density (OD value) at 515 nm was read on a VERSMax microplate reader. […] The experiment was repeated twice. The IC50 data was calculated as a range based on the test results of concentrations set in the initial screening test.
On the technique in general: The SRB assay estimates cell density from bound dye.
As for `CN1CCN(CCOc2cnc3nccc(Oc4ccc(NC(=O)C5(C(=O)Nc6ccc(F)cc6)CC5)cc4F)c3n2)CC1` [Compound 66S, N-(3-fluoro-4-((2-(2-(4-methylpiperazin-1-yl)ethoxy)pyrido[2,3-b]pyrazin-8-yl)oxy)phenyl)-N-(4-fluorophenyl) cyclopropyl-1,1-dicarboxamide], the pIC50 is 5.00 to 6.00.
